The subject of data set [1] is delayed hypersensitivity reaction (pertussis vaccine pleurisy). As to the kind of experiment: pertussis vaccine pleurisy test in rats. In kind it is in vivo, rat (male Sprague-Dawley). As to conditions: 10 mg/kg p.o.; for change in vivo at 10 mg/kg: Rattus norvegicus, po, 48 h, once daily day 10 to day 13, vs control, preliminary, read-out: Enhancement of the delayed hypersensitivity reaction assessed by the exudate vol. The method in brief:
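Male Sprague-Dawley rats (250-275 g, ≥10/group) sensitized day 0 with heat-killed B. pertussis in Freund's incomplete adjuvant into hind and forepaw, challenged intrapleurally day 12. Compounds in aqueous methocel given intragastrically once daily days 10-13. Pleural exudate volume measured day 14, expressed as percent of methocel control.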

In data set [2] the test system is delayed hypersensitivity reaction (adjuvant arthritis, Mycobacterium butyricum). Description: adjuvant arthritis test in rats. In kind it is in vivo, rat (male Lister hooded). As to conditions: for change in vivo at 10 mg/kg: 10 mg/kg p.o.; for change in vivo at 40 mg/kg / significant potentiating effect in the adjuvant arthritis test: 40 mg/kg p.o. An excerpt:
The adjuvant arthritis test in rats produces a measureable extent of a delayed hypersensitivity reaction and can be used for a determination of variations in the extent of the delayed hypersensitivity reaction upon drug administration to the host. An increase in the extent of the delayed hypersensitivity reaction upon drug administration consequently indicates enhanced cell-mediated immunity in the host.
This example illustrates the effect of the compounds of the general formula I in the adjuvant arthritis test in rats.
The adjuvant arthritis test in rats produces a delayed hypersensitivity reaction and can be used for a determination of variations of the delayed hypersensitivity reaction upon drug administration to the host. An increase in the extent of the delayed hypersensitivity reaction upon drug administration consequently indicates enhanced cell-mediated immunity in the host.
A modification of a method described in (12) was used. Male Lister hooded rats weighing 250-275 g were used. At least 9 animals were used in each experimental group.
A single intradermal injection of 0.5 mg/0.1 ml heat killed Mycobacterium butyricum suspended in sterile liquid paraffinum was given into the right hind foot of all rats. After this injection, day 0, the volume of the left hind paw, measured by water displacement, was followed to the end of the experiment.
The substances suspended in aqueous methocel solution 10 ml/kg were given intragastrically. The control group was given methocel solution 10 ml/kg. The different groups of animals were thus treated once daily from day -4 to day 14. The effect of the substances was assessed by the left foot volume expressed in percent after comparison with the control groups.

A further data set relates to mice. As to conditions: mice p.o.; reference 13; cited from earlier work.
For data set [3], the system named is carrageenan-induced edema. Description: carrageenan edema test in rats. Format: in vivo, rat (female Sprague-Dawley). As to conditions: for change in vivo at 80 mg/kg: Rattus norvegicus, po, 80 mg/kg p.o., 30 min before carrageenan, edema weight 3 h after, vs control, preliminary, read-out: Potentiation of the carrageenan edema, %; for significant potentiation of the carrageenan edema: dose within the range 10-160 mg/kg p.o. The method in brief: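 Female Sprague-Dawley rats (110-120 g, ≥10 per group) received compound intragastrically in aqueous methocel 30 min before plantar carrageenan injection into the right hind paw. At 3 h, right minus left paw weight gave edema weight, expressed as percent of methocel controls.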
(In the carrageenan paw model, swelling and tenderness develop within hours.)

[4] abbreviates: Rattus norvegicus, po, 336 h, once daily day -4 to day 14, vs control, preliminary, read-out: Increase of the volume of the left foot.

In the case of `c1ccc([C@H]2CN3CCSC3=N2)cc1` [Levamisole, levamisole, reference compound], the change in vivo at 10 mg/kg in data set [1] amounted to 13%; in data set [2] (setting [4]) it was 12%. In addition, the change in vivo at 5 mg/kg in data set [2] (Rattus norvegicus, po, 336 h, 5 mg/kg p.o., once daily day -4 to day 14, vs control, preliminary, read-out: Increase of the volume of the left foot) worked out at 4%. In addition, the “acute LD50” value in the data set on mice is listed as 285 mg/kg.
As to `O=C(Nc1ccccc1)c1c(O)c2cccc3c2n(c1=O)CCC3` [2:3, N-phenyl-1,2-dihydro-4-hydroxy-2-oxo-1,8-trimethylene-quinoline-3-carboxamide], the change in vivo at 10 mg/kg in data set [1] was found to be 66%. Moreover, the change in vivo at 40 mg/kg in data set [2] (setting [4]) came out at 39%. In data set [3], the change in vivo at 80 mg/kg was 61%.
As for `CN(C(=O)c1c(O)c2ccccc2n(C)c1=O)c1ccc(Cl)cc1` [21:9, N-(4-chlorophenyl)-N-methyl-1,2-dihydro-4-hydroxy-1-methyl-2-oxo-quinoline-3-carboxamide], the change in vivo at 10 mg/kg in data set [1] worked out at 84%; in data set [2] (setting [4]), 51%. Also, in data set [3], the change in vivo at 80 mg/kg was 52%.
`CN(C(=O)c1c(O)c2ccccc2n(C)c1=O)c1ccccn1` [21:7, N-methyl-N-(2-pyridyl)-1,2-dihydro-4-hydroxy-1-methyl-2-oxo-quinoline-3-carboxamide]: the change in vivo at 10 mg/kg in data set [1] stood at 21%. The “significant potentiating effect in the adjuvant arthritis test” value in data set [2] is “significant potentiating effect”. Also, the “significant potentiation of the carrageenan edema” value in data set [3] is “potentiate significantly”.
Consider `Cn1c(=O)c(C(=O)Nc2cnccn2)c(O)c2ccccc21` [7:4, N-pyrazinyl-1,2-dihydro-4-hydroxy-1-methyl-2-oxo-quinoline-3-carboxamide], for which the change in vivo at 10 mg/kg in data set [1] was determined as 27%. Moreover, in data set [2] (setting [4]), the change in vivo at 40 mg/kg turned out to be 29%. The change in vivo at 80 mg/kg in data set [3] was found to be 34%.
With `CN(C)c1ccc(NC(=O)c2c(O)c3cc(N(C)C)cc4c3n(c2=O)CCC4)cc1` [13:3, N-(4-dimethylaminophenyl)-1,2-dihydro-6-dimethylamino-4-hydroxy-2-oxo-1.8-trimethylene-quinoline-3-carboxamide], the “significant enhancing effect in the pertussis vaccine pleurisy test” value in data set [1] is “significant enhancing effect”. In addition, the “significant potentiating effect in the adjuvant arthritis test” value in data set [2] is “significant potentiating effect”. Besides, the “significant potentiation of the carrageenan edema” value in data set [3] was “potentiate significantly”.

Source of the values: patent publication US4738971A, “N-aryl-1,2-dihydro-4-substituted-1-alkyl-2-oxo-quinoline-3-carboxamides” (priority 1981, dated 1988).
